# Laboratory results published in patent US11597702B2, “Substituted pyrazoles FFA4/GPR120 receptor agonists” (AXXAM S.P.A., priority 2018, dated 2023).
# Target: T1, GPR120 (Homo sapiens, UniProt Q5NUL3)
# T1 construct: expressed in transfected cells; host or cells: CHO mitoPhotinaGPR120 cells
# T1 sequence (Q5NUL3 1-361): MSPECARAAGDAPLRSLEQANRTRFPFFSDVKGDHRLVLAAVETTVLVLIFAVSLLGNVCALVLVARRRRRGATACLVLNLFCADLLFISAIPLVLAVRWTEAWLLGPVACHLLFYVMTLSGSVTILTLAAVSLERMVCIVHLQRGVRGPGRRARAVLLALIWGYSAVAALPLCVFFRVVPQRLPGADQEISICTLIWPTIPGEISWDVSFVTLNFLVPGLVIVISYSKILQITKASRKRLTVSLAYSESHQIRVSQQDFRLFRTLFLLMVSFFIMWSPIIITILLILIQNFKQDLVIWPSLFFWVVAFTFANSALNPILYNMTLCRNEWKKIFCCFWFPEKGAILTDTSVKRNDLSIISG
# Assay: GPR120 agonism in CHO mitoPhotinaGPR120 cell based assay with fluorescent (Fluo-8 calcium, FLIPRTetra) readout, Agonist Mode, dose response
# Conditions: CHO mitoPhotinaGPR120 cells, Fluo-8 No Wash Ca2+ dye, dose response in quadruplicate, 0.0033% fatty acid free BSA
# Procedure: Compounds of the invention were tested for GPR120 agonism in a CHO mitoPhotinaGPR120 cell based assay with fluorescent readout in Agonist Mode in dose response in quadruplicate with intra-plate modality.
# Twenty (20) h after seeding, growth medium was manually removed and cells were starved in the presence of 25 μL/w of Standard Tyrode's Buffer. After 3 h, cells were loaded with 20 μL/w of 0.5× Fluo-8 No Wash (AAT Bioquest, Inc.) Ca2+ sensitive dye prepared in Standard Tyrode's Buffer. Cells were incubated for 1 h at room temperature in the dark. Ten (10) μL/w 3× of controls and compounds were diluted in Standard Tyrode's Buffer+0.01% fatty acid free BSA (final concentration=0.0033%) and injected at the FLIPRTetra®, recording the kinetic calcium traces for 3 minutes. Standard Tyrode's buffer composition: 5 mM KCl, 130 mM NaCl, 2 mM CaCl2), 5 mM NaHCO3, 1 mM MgCl2, 20 mM HEPES, pH7.4.
row,EC50 [µM],SMILES
1,10.4,"Cc1nn(-c2ccncc2)c(COc2ccc(CCO)cc2)c1C#N [Example 104, 5-[[4-(2-hydroxyethyl)phenoxy]methyl]-3-methyl-1-(4-pyridyl)pyrazole-4-carbonitrile]"
2,12.6,"Cc1nn(-c2ncccn2)c(COc2ccc(CCO)cc2)c1C#N [Example 105, 5-[[4-(2-hydroxyethyl)phenoxy]methyl]-3-methyl-1-pyrimidin-2-yl-pyrazole-4-carbonitrile]"
3,2.49,"Cc1nn(-c2cccnn2)c(COc2ccc(CCO)cc2)c1C#N [Example 106, 5-[[4-(2-hydroxyethyl)phenoxy]methyl]-3-methyl-1-pyridazin-3-yl-pyrazole-4-carbonitrile]"
4,8.15,"Cc1nn(-c2ccc(C#N)cc2)c(COc2ccc(CCO)cc2)c1C#N [Example 107, 1-(4-cyanophenyl)-5-[[4-(2-hydroxyethyl)phenoxy]methyl]-3-methyl-pyrazole-4-carbonitrile]"
5,3.22,"Cc1nn(-c2ccc(C(F)(F)F)cc2)c(COc2ccc(CCO)cc2)c1C#N [Example 109, 5-[[4-(2-hydroxyethyl)phenoxy]methyl]-3-methyl-1-[4-(trifluoromethyl)phenyl]pyrazole-4-carbonitrile]"
6,10.2,"Cc1nn(-c2c(F)cccc2F)c(COc2ccc(CCO)cc2)c1C#N [Example 112, 1-(2,6-difluorophenyl)-5-[[4-(2-hydroxyethyl)phenoxy]methyl]-3-methyl-pyrazole-4-carbonitrile]"
7,5.55,"Cc1nn(-c2ccc(F)cc2F)c(COc2ccc(CCO)cc2)c1C#N [Example 114, 1-(2,4-difluorophenyl)-5-[[4-(2-hydroxyethyl)phenoxy]methyl]-3-methyl-pyrazole-4-carbonitrile]"
8,4.62,"Cc1nn(-c2ccc(OC(F)(F)F)cc2)c(COc2ccc(CCO)cc2)c1C#N [Example 115, 5-[[4-(2-hydroxyethyl)phenoxy]methyl]-3-methyl-1-[4-(trifluoromethoxy)phenyl]pyrazole-4-carbonitrile]"
9,1.63,"Cc1nn(-c2ccc(Cl)nn2)c(COc2ccc(CCO)cc2)c1C#N [Example 116, 1-(6-chloropyridazin-3-yl)-5-[[4-(2-hydroxyethyl)phenoxy]methyl]-3-methyl-pyrazole-4-carbonitrile]"
10,1.2,"Cc1nn(C2CCCC2)c(COc2ccc(CCO)cc2)c1C#N [Example 117, 1-cyclopentyl-5-[[4-(2-hydroxyethyl)phenoxy]methyl]-3-methyl-pyrazole-4-carbonitrile]"
11,2.24,"Cc1nn(C2CCCCC2)c(COc2ccc(CCO)cc2)c1C#N [Example 118, 1-cyclohexyl-5-[[4-(2-hydroxyethyl)phenoxy]methyl]-3-methyl-pyrazole-4-carbonitrile]"
12,5.92,"Cc1cc(COc2ccc(CCO)cc2)n(-c2ccccc2)n1 [Example 126, 2-[4-[(5-methyl-2-phenyl-pyrazol-3-yl)methoxy]phenyl]ethanol]"
13,3.33,"N#Cc1cnn(-c2ccccc2)c1COc1ccc(CCO)cc1 [Example 129, 5-[[4-(2-hydroxyethyl)phenoxy]methyl]-1-phenyl-pyrazole-4-carbonitrile]"
14,0.19,"N#Cc1cnn(-c2ccccc2)c1COc1ccc(CCCO)cc1 [Example 130, 5-[[4-(3-hydroxypropyl)phenoxy]methyl]-1-phenyl-pyrazole-4-carbonitrile]"
15,9.73,"Cc1nn(-c2ccccc2)c(COc2c(F)cc(CCC(=O)O)cc2F)c1C#N [Example 133, 3-[4-[(4-cyano-5-methyl-2-phenyl-pyrazol-3-yl)methoxy]-3,5-difluoro-phenyl]propanoic acid]"
16,17.7,"Cc1nn(-c2ccccc2)c(COc2ccc(CCC3CCNCC3)cc2)c1C#N [Example 136, 3-methyl-1-phenyl-5-[[4-[2-(4-piperidyl)ethyl]phenoxy]methyl]pyrazole-4-carbonitrile]"
17,3.36,"Cc1nn(-c2ccccc2)c(COc2ccc(-c3nc(CO)cs3)cc2)c1C#N [Example 146, 5-[[4-[4-(hydroxymethyl)thiazol-2-yl]phenoxy]methyl]-3-methyl-1-phenyl-pyrazole-4-carbonitrile]"
18,1.49,"Cc1nn(-c2ccccc2)c(COc2ccc(CO)cc2C(F)(F)F)c1C#N [Example 147, 5-[[4-(hydroxymethyl)-2-(trifluoromethyl)phenoxy]methyl]-3-methyl-1-phenyl-pyrazole-4-carbonitrile]"

row,EC50 [µM],SMILES
1,0.15,"Cc1nn(-c2ccccn2)c(COc2ccc(CCCO)cc2)c1C#N [Example 149, 5-[[4-(3-hydroxypropyl)phenoxy]methyl]-3-methyl-1-(2-pyridyl)pyrazole-4-carbonitrile]"
2,0.15,"Cc1ccc(-n2nc(C)c(C#N)c2COc2ccc(CCCO)cc2)cc1 [Example 150, 5-[[4-(3-hydroxypropyl)phenoxy]methyl]-3-methyl-1-(p-tolyl)pyrazole-4-carbonitrile]"
3,0.24,"CCc1ccc(-n2nc(C)c(C#N)c2COc2ccc(CCCO)cc2)cc1 [Example 151, 1-(4-ethylphenyl)-5-[[4-(3-hydroxypropyl)phenoxy]methyl]-3-methyl-pyrazole-4-carbonitrile]"
4,0.51,"Cc1nn(-c2ccc(Cl)cc2)c(COc2ccc(CCCO)cc2)c1C#N [Example 152, 1-(4-chlorophenyl)-5-[[4-(3-hydroxypropyl)phenoxy]methyl]-3-methyl-pyrazole-4-carbonitrile]"
5,0.18,"Cc1nn(C2CCCC2)c(COc2ccc(CCCO)cc2)c1C#N [Example 153, 1-cyclopentyl-5-[[4-(3-hydroxypropyl)phenoxy]methyl]-3-methyl-pyrazole-4-carbonitrile]"
6,0.21,"Cc1nn(-c2ccc(F)cn2)c(COc2ccc(CCCO)cc2)c1C#N [Example 154, 1-(5-fluoro-2-pyridyl)-5-[[4-(3-hydroxypropyl)phenoxy]methyl]-3-methyl-pyrazole-4-carbonitrile]"
7,0.81,"Cc1nn(-c2ccc(Cl)cn2)c(COc2ccc(CCCO)cc2)c1C#N [Example 155, 1-(5-chloro-2-pyridyl)-5-[[4-(3-hydroxypropyl)phenoxy]methyl]-3-methyl-pyrazole-4-carbonitrile]"
8,0.19,"Cc1ccc(-n2nc(C)c(C#N)c2COc2ccc(CCCO)cc2)nc1 [Example 156, 5-[[4-(3-hydroxypropyl)phenoxy]methyl]-3-methyl-1-(5-methyl-2-pyridyl)pyrazole-4-carbonitrile]"
9,0.28,"COc1ccc(-n2nc(C)c(C#N)c2COc2ccc(CCCO)cc2)nc1 [Example 157, 5-[[4-(3-hydroxypropyl)phenoxy]methyl]-1-(5-methoxy-2-pyridyl)-3-methyl-pyrazole-4-carbonitrile]"
10,0.13,"Cc1nn(-c2ccccn2)c(COc2c(F)cc(CCCO)cc2F)c1C#N [Example 158, 5-[[2,6-difluoro-4-(3-hydroxypropyl)phenoxy]methyl]-3-methyl-1-(2-pyridyl)pyrazole-4-carbonitrile]"
11,0.19,"Cc1ccc(-n2nc(C)c(C#N)c2COc2c(F)cc(CCCO)cc2F)cc1 [Example 159, 5-[[2,6-difluoro-4-(3-hydroxypropyl)phenoxy]methyl]-3-methyl-1-(p-tolyl)pyrazole-4-carbonitrile]"
12,0.3,"CCc1ccc(-n2nc(C)c(C#N)c2COc2c(F)cc(CCCO)cc2F)cc1 [Example 160, 5-[[2,6-difluoro-4-(3-hydroxypropyl)phenoxy]methyl]-1-(4-ethylphenyl)-3-methyl-pyrazole-4-carbonitrile]"
13,0.23,"COc1ccc(-n2nc(C)c(C#N)c2COc2c(F)cc(CCCO)cc2F)cc1 [Example 161, 5-[[2,6-difluoro-4-(3-hydroxypropyl)phenoxy]methyl]-1-(4-methoxyphenyl)-3-methyl-pyrazole-4-carbonitrile]"
14,0.43,"Cc1nn(-c2ccc(Cl)cc2)c(COc2c(F)cc(CCCO)cc2F)c1C#N [Example 162, 1-(4-chlorophenyl)-5-[[2,6-difluoro-4-(3-hydroxypropyl)phenoxy]methyl]-3-methyl-pyrazole-4-carbonitrile]"
15,0.099,"Cc1nn(C2CCCC2)c(COc2c(F)cc(CCCO)cc2F)c1C#N [Example 163, 1-cyclopentyl-5-[[2,6-difluoro-4-(3-hydroxypropyl)phenoxy]methyl]-3-methyl-pyrazole-4-carbonitrile]"
16,0.19,"Cc1nn(-c2ccc(F)cn2)c(COc2c(F)cc(CCCO)cc2F)c1C#N [Example 164, 5-[[2,6-difluoro-4-(3-hydroxypropyl)phenoxy]methyl]-1-(5-fluoro-2-pyridyl)-3-methyl-pyrazole-4-carbonitrile]"
17,0.17,"Cc1ccc(-n2nc(C)c(C#N)c2COc2c(F)cc(CCCO)cc2F)nc1 [Example 165, 5-[[2,6-difluoro-4-(3-hydroxypropyl)phenoxy]methyl]-3-methyl-1-(5-methyl-2-pyridyl)pyrazole-4-carbonitrile]"
